According to US10849912B2, “Method of sensitizing cancer cells to the cytotoxic effects of apoptosis inducing ligands in cancer treatment” (The United States of America, as represented by the …, priority 2016, dated 2020):
Entries after “also recorded” stand apart in the source; their conditions may differ.

Key:
[1] = tested on: melanoma cells (M14, SK-MEL-28, UACC-62, SK-MEL-5, MALME-3M); test: Sensitization of melanoma cells to TRAIL apoptosis, percentage decrease in cell number; assay type: cell-based; settings: for percentage decrease in cell number, agent alone: absence of TRAIL, FIGS. 18B-22B, 18C-22C
From the text: (§1) This example provides a comparison of the activities of compound 1 with the Smac mimetics birinapant, GDC-0152, and LCL-161 and with the Bcl-2 antagonists ABT-199 and ABT-737 for sensitization of renal carcinoma and melanoma cells to TRAIL apoptosis.
(§2) The results for compound 1 are shown graphically in FIGS. 13A-22A. The results for Smac mimetics birinapant, GDC-0152, and LCL-161 are shown graphically in FIGS. 13B-22B. The results for Bcl-2 antagonists ART-199 and ABT-737 are shown graphically in FIGS. 13C-22C, FIGS. 13A-22A, 13B-22B, and 13C-22C depict the percentage decrease in cell number as a function of concentration. For FIGS. 13B-22B and 13C-22C, the dose response curve was obtained for one of the listed agents.

[2] = tested on: renal carcinoma cell lines (ACHN, SN12C, Caki-1, TK-10, UO-31); test: Sensitization of renal carcinoma cells to TRAIL apoptosis, percentage decrease in cell number; assay type: cell-based; settings: for percentage decrease in cell number, agent alone: absence of TRAIL, FIGS. 13B-17B, 13C-17C
From the text: as §1, §2

[3] = tested on: SKMEL28 melanoma cells; test: Effect of pan caspase inhibitor ZVAD-FMK on growth inhibition by poly IC plus compound, MTS; assay type: cell-based, human; settings: compound 1000 nM for 16-18 h, ZVAD-FMK 40 μM for 2 h, poly IC 20-24 h
Protocol: To assess the effects of pan caspase inhibitor ZVAD, SKMEL28 melanoma cells were treated with compounds 9 and 1 for 16-18 h. Subsequently, ZVAD-FMK (40 μM) or DMSO was added for 2 h followed by 20-24 h incubation in the presence or absence of poly IC. Cell viability was assessed by addition of MTS during the last four hours of poly IC treatment.
The growth inhibition as a function of poly IC concentration at 1000 nM concentrations of compounds 9 and 1 was determined, and the results shown in FIGS. 10A and 10B, respectively.

[4] = tested on: SK MEL28 melanoma cells; test: Effect of bafilomycin on sensitization to poly IC, MTS cell viability; assay type: cell-based, human; settings: 50 nM bafilomycin A, poly IC 36-48 h
Protocol: (§3) For all experiments, cells (ACHN (renal carcinoma), M14, SK MEL28, and Malme (human melanoma lines)) were plated at a concentration of 5000 cells/well overnight. All treatments were carried out the following day.
To inhibit TLR 3 signaling, cells were treated with compound 9, compound 1, or compound 10 for 4 hours followed by addition of 50 nM of Balfilomycin A or DMSO for 2.5 h. Subsequently poly IC was added for 36-48 h and cell viability was assessed by addition of MTS during the last four hours of Poly IC treatment. The results for compounds 9, 1, and 10 are depicted in FIG. 6.

[5] = tested on: human M14 melanoma; test: Xenograft model of human M14 melanoma, intratumoral compound; assay type: in vivo, athymic nude mice; settings: 20 mg/Kg, once per week for four weeks
Protocol: Female nude athymic mice were obtained from Charles River Laboratory. All mice were kept under specific pathogen-free conditions with water and food given ad libitum. All experiments with mice were performed in compliance with the principles and procedures outlined in the National Institutes of Health Guide for the Care and Use of Animals and were approved by the National Cancer Institute at Frederick Animal Care and Use Committee.
For in vivo treatments with compounds 9 and 1, compound 9 and compound 1 stock solutions (0.5M and 0.25M in DMSO respectively) were diluted in 33% Trappsol and DMSO at a ratio of 7:1 and administered intratumorally or at the base of tumor in a volume of 20 ul at a dose of 20 mg/Kg of body weight. […]
Mice (nude athymic, female, 6-8-week old, n=5), were implanted subcutaneously with 0.2 ml of M14 melanoma cells (1×10^6/mouse) into the right flank. […] The appearance and growth of tumors were monitored twice every week. The greatest longitudinal diameter (length) and the greatest transverse diameter (width) of a palpable tumor were measured to the nearest 0.1 mm using a caliper. Tumor volume (mm^3) was calculated by the ellipsoidal formula Tumor volume=[…]. […]

[6] = tested on: caspase-8; test: Western blot of caspase-8 activation in ACHN cells treated with compound, with or without poly IC; assay type: cell-based; settings: compound 125 nM-1 μM overnight, then 10 ug/ml polyIC for 3 hours
Protocol: (§4) ACHN cells were grown in RPMI (RPMI, 5% FBS, Pen-strep, NEAA, HEPES, Glutamax, Sodium Pyruvate, 2ME), 2×10^6 cells/well were plated in 6 well plates and grown overnight, on day 2 compound 9 or compound 1 were added, including duplicate plates and incubated overnight. On day 3 either media or 10 ug/ml polyIC was added for 3 hours. Cells were lysed in RIPA buffer (30 mM Tris-HCL pH 7.5, 150 mM NaCl, 10% glycerol, 1% Triton X-100) supplemented with Pierce Halt Protease and Phosphatase Inhibitor and 40 μM ZVAD, the RIPA buffer also contained Pierce Universal Nuclease. Protein concentrations were measured using the Pierce BCA Protein Assay (Thermo Fisher Scientific, Waltham, Mass.), Twenty micrograms of each sample was run on a Bolt Gel (Thermo Fisher Scientific), transferred to a PVDF membrane using the BioRad Trans-Blot Turbo Transfer System (BioRad, Hercules, Calif.), briefly placed in Methanol, dried, rehydrated, and blocked in Pierce Start Block buffer. […]

[7] = tested on: cFLIP; test: Western blot of cFLIP levels in ACHN cells treated with compound, with or without poly IC; assay type: cell-based; settings: compound 125 nM-1 μM overnight, FIGS. 5A and 5B
Protocol: as §4

[8] = tested on: M14 melanoma cells; test: Titration of sensitization to TRAIL, MTS cell viability; assay type: cell-based, human; settings: compound 0.97 nM-2000 nM for 3 or 24 h, then 10 ng/ml TRAIL for 24 h
Protocol: as §3
(§5) For titration experiments in the presence or absence of TRAIL, cells were treated with various doses of compound 8 (0.97 nM-2000 nM) for 3 or 24 h followed by 10 ng/ml of recombinant TRAIL for 24 h. Cell viability was assessed by addition of MTS during the last four hours of TRAIL treatment. The results with SK MEL28, M14, and Malme cells are depicted in FIGS. 7A-7C, respectively.
(§6) Titration experiments were conducted as described in Example 5.

[9] = tested on: Malme 3M melanoma cells; test: as above; assay type: cell-based, human; settings: Malme (Malme 3M); compound 0.97 nM-2000 nM for 3 or 24 h, then 10 ng/ml TRAIL for 24 h
Protocol: as §3, §5, §6

[10] = tested on: SK MEL28 melanoma cells; test: as above; assay type: cell-based, human; settings: compound 0.97 nM-2000 nM for 3 or 24 h, then 10 ng/ml TRAIL for 24 h
Protocol: as §3, §5

For `CC1=C(C)C(=O)OC([C@](C)(O)[C@]2(O)CC[C@@]3(O)C4CC=C5C(=O)C=CC(=O)[C@]5(C)C4CC[C@]23C)C1` (stereo partly shown), the melting point was 176 to 178 °C.

With `CC1(C)CCC(CN2CCN(c3ccc(C(=O)NS(=O)(=O)c4ccc(NCC5CCOCC5)c([N+](=O)[O-])c4)c(Oc4cnc5[nH]ccc5c4)c3)CC2)=C(c2ccc(Cl)cc2)C1` [ABT-199] the “percentage decrease in cell number, agent alone” value (from here on “percentage decrease”) [1] was “little to no response due to concentration” and the “percentage decrease” value [2] was “little to no response due to concentration”.

In the case of `CN(C)CC[C@H](CSc1ccccc1)Nc1ccc(S(=O)(=O)NC(=O)c2ccc(N3CCN(Cc4ccccc4-c4ccc(Cl)cc4)CC3)cc2)cc1[N+](=O)[O-]` [ABT-737], the “percentage decrease” value [1] is reported as “little to no response due to concentration” and the “percentage decrease” value [2] is reported as “little to no response due to concentration”.

In the case of `CN[C@@H](C)C(=O)N[C@H](C(=O)N1CCC[C@H]1C(=O)Nc1snnc1-c1ccccc1)C1CCCCC1` [GDC-0152], the “percentage decrease” value [1] is reported as “little to no response due to concentration” and the “percentage decrease” value [2] is reported as “little to no response due to concentration”.

For `CN[C@@H](C)C(=O)N[C@H](C(=O)N1CCC[C@H]1c1nc(C(=O)c2ccc(F)cc2)cs1)C1CCCCC1` [LCL-161], the “percentage decrease” value [1] was “little to no response due to concentration” and the “percentage decrease” value [2] was “little to no response due to concentration”.

For `CC[C@H](NC(=O)[C@H](C)NC)C(=O)N1C[C@@H](O)C[C@H]1Cc1c(-c2[nH]c3cc(F)ccc3c2C[C@@H]2C[C@H](O)CN2C(=O)[C@H](CC)NC(=O)[C@H](C)NC)[nH]c2cc(F)ccc12` [birinapant], the “percentage decrease” value [1] was “little to no response due to concentration” and the “percentage decrease” value [2] was “little to no response due to concentration”.

For `CC(=O)OC[C@]12CC[C@H]3[C@@H](C[C@H]4O[C@]45CC=CC(=O)[C@]35C)[C@]1(O)CC[C@@]2(O)[C@@](C)(O)[C@H]1CC(C)=C(C)C(=O)O1` [compound 1, physachenolide C], the “reduction in cell number by poly IC in combination with compound, in presence of ZVAD-FMK” value [3] was “completely blocked”, the “sensitization to TRAIL apoptosis” value ([1]; 25 ng/mL TRAIL) was “significant activity” and the “apoptosis by the compound and poly IC combination after incubation with bafilomycin-A1” value [4] was “significantly reduced subsequent apoptosis”. The “observation at the tumor site accompanying decrease in tumor burden” value [5] was “massive tumor destruction and scabbing at the tumor site”, the “tumor growth and volume (tumor burden)” value ([5]; versus vehicle control, ****P<0.0001, 20 mg/kg) was “significant reduction in tumor growth and volume” and the “promoting caspase-8 activation in response to subsequent exposure to poly IC” value [6] was “more active than compound 9”. The “reducing the levels of cFLIPL+S” value [7] was “more active than compound 9” and the “sensitization to TRAIL apoptosis” value ([2]; 50 ng/mL TRAIL) was “superior sensitizer”.

In the case of “biotinylated derivative of 4β-hydroxywithanolide E [compound 8]”, the “sensitization to apoptosis by TRAIL” value [8] is reported as “sensitized; also recorded: more potent than compound 1 at lower concentrations”, the “sensitization to apoptosis by TRAIL” value [9] is reported as “sensitized; also recorded: more potent than compound 1 at lower concentrations” and the “sensitization to apoptosis by TRAIL” value [10] is reported as “sensitized”.
